Results: patent publication EP0372603A2, “Antibacterial oral composition” (Colgate-Palmolive Company, priority 1988, dated 1990)

Columns and labels:
[1] = test system: in vitro plaque which is formed by Actinomyces viscosus and strep mutans on extracted human teeth; assay: Antiplaque effect on in vitro plaque on extracted human teeth (visual score and erythrosine dye extraction); format: cell-based
Description: The antiplaque effect of chlorhexidine in the presence of aminoguanidine is determined by rinsing in vitro plaque which is formed by Actinomyces viscosus and strep mutans on extracted human teeth for 30 seconds once per day for three days with the full strength rinses below. The plaque growth is induced on teeth by daily transferring the teeth to an inoculated fresh medium (tryptocase soy broth). The amount of plaque is scored visually as well as after disclosing with erythrosine dye. The dye is then extracted with ethanol. The amount of the dye adsorbed is directly proportional to the amount of the plaque on teeth. The dye concentration is measured spectrophotometrically at wavelength 533nm.

[2] = test system: Actinomyces viscosus cells; assay: Antibacterial effect: full strength rinses exposed to cells for 60 seconds, CFU count; format: cell-based
Description: The antibacterial effect of chlorhexidine in the presence of aminoguanidine is determined by exposing the following full strength rinses to Actinomyces viscosus cells for 60 seconds.

[3] = In vitro stain retention on hydroxyapatite (bovine serum albumin/acetaldehyde browning model); conditions: 0.12, 0.25 and 1.0% of aminoguanidine gluconate with 0.12% CHX
Description: The following in vitro method correlates with and simulates the reaction whereby hydroxyapatite tooth mineral material is stained brown:
2.0 g hydroxyapatite (HAP), 10 ml of 25% Bovine Serum Albumin in 0.1M phosphate buffer (pH 7.0), 2.5 ml of 0.1M phosphate buffer containing mono-basic and di-basic sodium orthophosphate (pH 7), 25.0 ml of a test sample and 12.5 ml of 30% buffered acetaldehyde (pH 7) are mixed for 24 hrs. at 37 °C. The HAP is filtered and dried at 37 °C. The color retained on the HAP powder is qualified with a Gardner Color Difference Meter.

[4] = Gingivitis/plaque/stain evaluation in monkeys sprayed with rinse once daily for 6 weeks; format: in vivo, squirrel monkeys; set-up: key to Final Gingival Index: 0 = clinically normal gingiva to 4 = obvious redness with bleeding; Initial Stain Index / Final Stain Index: scale not given here; conditions: for Final Gingival Index: once daily spray 30 seconds; for Initial Gingival Index: baseline before treatment, scale 0-4; for Initial Plaque Index: modified Quigley-Hein index
Description: Adult squirrel monkeys are prepared for a gingivitis/plaque/stain evaluation including thorough prophylaxis. 36 surfaces (maxillary and mandibular; mesial, buccal and distal) are initially evaluated for plaque by a modified Quigley-Hein index and gingival inflation by the following scale: 0 - clinically normal; pink, form, knife-like gingival margin, triangular interdental papilla; 1 - change in the form of gingiva; gingival margin may be slightlyenlarged, no longer knife-like and firm, no color change; 2 - slight color change of marginal gingiva of interdental papilla, discrete areas of redness at most cornal surfaces of the free gingiva; 3- obvious color change in marginal gingiva or interdental papilla, no bleeding on probing; 4 - obvious color change; redness obvious; in addition, bleeding on probing or spontaneous bleeding.
The squirrel monkeys are then divided into 3 groups of four and each is treated in a double blind manner once daily for 6 weeks. All dentitions are sprayed for 30 seconds from polyethylene bottles containing rinse solution.
Initial and 6 week evaluations for three studies for plaque formation and gingival inflamation and 6 week evaluations for stain (indicate general protocol) follow, with stain TABLE 4

| SMILES | antiplaque activity (in words) ([1]; 0.25% Aminoguanidine alone) | effect on antiplaque activity of chlorhexidine (in words) ([1]; 0.25% Aminoguanidine with CHX) | antibacterial effect (in words) ([2]; 0.25% Aminoguanidine alone) | effect on antibacterial activity of chlorhexidine (in words) ([2]; 0.25% Aminoguanidine with CHX) | chlorhexidine induced stain (in words) [3] | Final Plaque Index ([4]; Study A, after 6 weeks) | Final Gingival Index ([4]; Study A, after 6 weeks) | Initial Gingival Index ([4]; Study A) | Initial Plaque Index ([4]; Study A, baseline) | Final Plaque Index ([4]; Study B, after 6 weeks) | Final Stain Index ([4]; Study B, after 6 weeks) | Final Gingival Index ([4]; Study B, after 6 weeks) | Initial Stain Index ([4]; Study B, baseline) | Initial Gingival Index ([4]; Study B) | Initial Plaque Index ([4]; Study B, baseline) | Final Plaque Index ([4]; Study C, after 6 weeks) | Final Gingival Index ([4]; Study C, after 6 weeks) | Initial Gingival Index ([4]; Study C) | Initial Plaque Index ([4]; Study C, baseline) |
| --- | --- | --- | --- | --- | --- | --- | --- | --- | --- | --- | --- | --- | --- | --- | --- | --- | --- | --- | --- |
| N=C(N)NN [Aminoguanidine, Hydrazine Carboximidamide (aminoguanidine)] | no antiplaque activity | does not compromise the antiplaque activity of chlorhexidine | no antibacterial effect | does not compromise antibacterial activity of chlorhexidine | reduces the chlorhexidine induced stain at least to about the level of the placebo |  |  |  |  |  |  |  |  |  |  |  |  |  |  |
| [H]/N=C(\N/C(=N/[H])NCCCCCCNC(=N)NC(=N)Nc1ccc(Cl)cc1)Nc1ccc(Cl)cc1 [CHX, chlorhexidine gluconate] |  |  |  |  |  | 1.24 | 0.49 | 0.43 | 0.55 | 0.47 | 0.62 | 0.47 | 0.01 | 0.54 | 0.15 | 0.83 | 0.63 | 0.56 | 0.53 |
